Read-outs that look alike come from different tables or passages of the source.
Assays:
[1] = target: T1, human CD40/CD154 (Homo sapiens, UniProt P29965); assay: Human CD40/CD154 binding inhibition assay (cell-free, plate-based)
T1 construct: CD154 (soluble human, FLAG-tagged, recombinant from Alexis Biochemicals; MW=18 kDa); purchased Alexis Biochemicals
T1 sequence (P29965 113-261 limits assumed): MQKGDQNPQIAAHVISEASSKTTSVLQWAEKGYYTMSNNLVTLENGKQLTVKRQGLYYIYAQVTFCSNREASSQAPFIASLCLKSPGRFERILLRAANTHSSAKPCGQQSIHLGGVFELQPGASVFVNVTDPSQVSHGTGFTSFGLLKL
Procedure: A 96-well plate-based cell-free in vitro binding inhibition assay, which is a modification of an assay described in U.S. Pat. No. 7,173,046, incorporated by reference in its entirety, has been developed and used for activity screening. Briefly, CD40 is coated at a preselected concentration, and binding of (FLAG-tagged) CD154 is measured by reacting with secondary antibody and using TMB liquid substrate system as a substrate for horseradish peroxidase for reading at 450 nm. The detailed procedure is as follows: Microtiter plates (Nunc F MaxiSorp) were coated with […] of CD40: Fc (human:Fc human, recombinant from Alexis Biochemicals; MW=54 kDa) diluted in PBS pH 7.2 at a preselected concentration of 0.3125 μg/mL. Plates were covered with plate sealer and stored overnight at 4° C. The liquid was removed from the plates and blotted dry. Plates were blocked by washing once with approx. 300 μL/well of Blocking Solution (PBS pH 7.2, 0.05% Tween-20, 1% BSA) and incubated with the same solution for 1 hour at room temperature (RT) or at 4° C. overnight. Coated plates were washed three times with Washing Solution (PBS pH 7.4, 0.05% Tween-20) and blotted dry. A preselected dilution of CD154 (soluble human, FLAG-tagged, recombinant from Alexis Biochemicals; MW=18 kDa) of 0.0087500875 μg/mL range was prepared in 100 mM HEPES, 0.005% BSA pH 7.2. Binding was carried out by adding 100 μL of this CD154 dilution/well and incubating at RT in the presence of test compounds (or blank as negative control). After incubation, the plates were washed with Washing Solution and blotted dry. Bound CD154 was detected with 200 μL/well of secondary antibody mAb ANTI-FLAG M2—Peroxidase Conjugate (anti-FLAG M2-peroxidase HRP conjugate; Sigma-Aldrich) diluted 1:40,000 in Washing Solution. After incubation, the plates were washed and blotted dry. 200 μL/well of the HR-Peroxidase substrate TMB (3,3′,5,5′-tetramethylbenzidine; Sigma-Aldrich) were added, and the plates were incubated for approximately 30 minutes in the dark. The reaction was stopped with 0.5 M H2SO4 and read at 450 nm. All conditions were tested in at least three independent experiments in duplicate or triplicate per plates. Data were normalized and fitted with standard log inhibitor vs. response models using GraphPad Prism 5 to establish median inhibitory ICso values.
A representative result using the monoclonal anti-human CD154 antibody (R&D Systems, monoclonal anti-human CD40 ligand/TNFSF5 antibody, MAB617; MW≈150 kDa used) as positive control is shown in FIG. 1.
Binding inhibition assays with this system provided consistent and well-reproducible results, as FIG. 1 (bottom), focusing on the concentration range of their activities, illustrates. […] The effect of DMSO, which was used as the diluting solvent for the non-water-soluble compounds and is a standard solvent in HTS assays, on the integrity of the assay has been examined. DMSO concentrations above 10% interfere with the binding assay, but concentrations below 3% have no effect. […] Because 5 or 10 mM stock solutions were used, all IC50 values below 250 μM can be considered as unaffected by DMSO.

[2] = target: P2 (ATP/UTP purine receptor); details: read-out: IC50, P2 antagonist; cited from earlier work
[3] = cell-free binding, read-out: Human CD40/CD154 IC50

| IC50 [1, 3] [µM] | IC50 ([1]; cell-free binding, read-out: Human CD40/CD154 IC50 (ug/mL) (converted)) [µM] | Activity in the human CD40/CD154 binding assay [1] | Human CD40/CD154 IC50 ([1]; cell-free binding) [µg/mL] | Human CD40/CD154 log IC50 ([1]; log of IC50, cell-free binding) | SMILES | IC50 [2] [µM] |
| --- | --- | --- | --- | --- | --- | --- |
| 14.6 | 14 |  |  |  | Cc1ccc(C(=O)Nc2ccc(S(=O)(=O)O)c3cc(S(=O)(=O)O)cc(S(=O)(=O)O)c23)cc1NC(=O)c1cccc(NC(=O)Nc2cccc(C(=O)Nc3cc(C(=O)Nc4ccc(S(=O)(=O)O)c5cc(S(=O)(=O)O)cc(S(=O)(=O)O)c45)ccc3C)c2)c1 [Suramin, reference compound] | 5 to 10 |
| > 2000 |  | inactive | >2000 | >−3.0 | O=C([O-])C1=NN(c2ccc(S(=O)(=O)[O-])cc2)C(=O)C1N=Nc1ccc(S(=O)(=O)[O-])cc1.[Na+].[Na+].[Na+] (stereo not shown) [Tartrazine (FD&C yellow 5), Tartrazine, reference compound] |  |

From patent US20110065675A1, “AZO DYE RELATED SMALL MOLECULE MODULATORS OF PROTEIN-PROTEIN INTERACTIONS” (University of Miami, priority 2008, published 2011)
